Measured values as given in patent US20220389500A1, “PURIFYING AND POLYMERIZING 3'-BLOCKED NUCLEOTIDES” (ILLUMINA, INC., priority 2021, published 2022).

What was measured:
[1] = Observation of precipitate and color change of dye-coupled nucleotide solutions with polishing polymerase, template, magnesium ions and buffer; format: physicochemical; conditions: HPBCD added to dye-coupled nucleotides, magnesium ions (magnesium acetate) and buffer
Excerpt: A precipitate was formed and a color change of solution was observed when nucleotides (3′-blocked and 3′-OH), which were coupled to different fluorescent dyes, were mixed with polishing polymerase, a template, magnesium ions (from magnesium acetate), and a buffer. The change in color was interpreted as the solution having a reduced concentration of fluorescent dyes, and the precipitate was interpreted as being an aggregation of the nucleotides coupled to the fluorescent dyes. […] From this it was inferred that modified α-cyclodextrins (such as (2-hydroxypropyl)-α-cyclodextrin), other modified β-cyclodextrins (such as […], HEBCD), or modified γ-cyclodextrins (such as (2-hydroxypropyl)-γ-cyclodextrin) may promote solubility of the nucleotides and/or of the fluorescent dyes. A series of solutions were prepared in which the concentration of magnesium ions was varied between 0 and 6.3 mM, the concentration of HPBCD was varied between 0% and 10% (w/v), and the concentration of nucleotides including fluorescent dyes was varied between 0.5 and 1.5 mM. […] The plots described below with reference to FIGS. 12-15 were obtained by using the measured normalized intensities, together with the corresponding concentrations of different solution components, in a model that interpolated the behavior of the solution system for additional concentrations. […]

[2] = Concentrations of byproducts diphosphate and tetraphosphate in nucleotide solutions vs HPBCD, magnesium ions and nucleotides (FIG. 15); format: physicochemical; conditions: solutions with buffer, polymerase and oligonucleotide template
Excerpt: A precipitate was formed and a color change of solution was observed when nucleotides (3′-blocked and 3′-OH), which were coupled to different fluorescent dyes, were mixed with polishing polymerase, a template, magnesium ions (from magnesium acetate), and a buffer. The change in color was interpreted as the solution having a reduced concentration of fluorescent dyes, and the precipitate was interpreted as being an aggregation of the nucleotides coupled to the fluorescent dyes. […] The plots described below with reference to FIGS. 12-15 were obtained by using the measured normalized intensities, together with the corresponding concentrations of different solution components, in a model that interpolated the behavior of the solution system for additional concentrations. […]
FIG. 15 includes plots of the concentrations of different byproducts as a function of concentrations of the modified β-cyclodextrin HPBCD, of magnesium ions, and of the fluorescently labeled nucleotides FFA-1, FFA-3, and FFC-1. More specifically, the respective concentrations of diphosphate and tetraphosphate in the solutions were measured and used in the above-noted models. […]

## CC(O)COC[C@H]1O[C@@H]2O[C@H]3[C@H](O)[C@@H](O)[C@@H](O[C@H]4[C@H](O)[C@@H](O)[C@@H](O[C@H]5[C@H](O)[C@@H](O)[C@@H](O[C@H]6[C@H](O)[C@@H](O)[C@@H](O[C@H]7[C@H](O)[C@@H](O)[C@@H](O[C@H]8[C@H](O)[C@@H](O)[C@@H](O[C@H]1[C@H](O)[C@H]2O)O[C@@H]8COCC(C)O)O[C@@H]7COCC(C)O)O[C@@H]6COCC(C)O)O[C@@H]5COCC(C)O)O[C@@H]4COCC(C)O)O[C@@H]3COCC(C)O (stereo partly drawn) [HPBCD, (2-hydroxypropyl)-β-cyclodextrin]
[1]
  precipitate formation and color change of solution: did not form a precipitate or change color
[2]
  effect on formation of byproducts (diphosphate, tetraphosphate): suppressed the formation of different byproducts
